Test results as given in publication PMC6112376, “Comprehensive Analyses and Prioritization of Tox21 10K Chemicals Affecting Mitochondrial Function by in-Depth Mechanistic Studies” (Environmental Health Perspectives, 2018).
Read-outs that look alike come from different tables or passages of the source.

Assays:
[1] = system: Caenorhabditis elegans (Bristol N2); assay: C. elegans larval development and growth assay
HepG2 cells [2] = conditions: cited from earlier work; for IC50: read-out: MMP assays IC50 (µM), qHTS-HepG2
[3] = system: Caenorhabditis elegans strain PE255; assay: In vivo C. elegans ATP status assay
[4] = system: isolated rat liver mitochondria; assay: Oxygen consumption, Clark-type oxygen electrode; assay type: biochemical
rat primary hepatocytes [5] = assay: MMP assay in rat primary hepatocytes; conditions: Rattus norvegicus, Hepatocyte
[6] = system: Nrf2/ARE (ARE-bla HepG2 cells); assay: ARE β-lactamase reporter gene assay; assay type: cell-based, human; conditions: 16 h incubation, mean±SD of three experiments
hNSC = assay: MMP assay in human neural stem cells (hNSC); assay type: cell-based; conditions: Homo sapiens, Neural stem cell, 1 h, read-out: hNSC IC50 (MMP)
HepG2 cells [7] = assay: ROS-Glo hydrogen peroxide (ROS) assay; assay type: cell-based, human
[8] = system: HeLa cells expressing YFP-Parkin; assay: Parkin translocation assay; assay type: cell-based, human
rat primary hepatocytes [9] = system: rat primary hepatocytes
[10] = system: p53 (p53-bla HCT-116 cells); assay: p53 β-lactamase reporter gene assay; assay type: cell-based, human; conditions: 16 h incubation, mean±SD of three experiments
HepG2 cells [11] = assay: cells; conditions: Homo sapiens; for Emax: HepG2, read-out: MMP assays efficacy (%) HepG2
HepG2 cells [12] = assay: Intracellular ATP content (cell viability) assay; assay type: cell-based, human; conditions: Homo sapiens, HepG2, 40 h
[13] = 1 h, read-out: Rat hepatocytes IC50 (MMP)
[14] = HepG2, 1 h, read-out: HepG2 IC50 Galactose (MMP)
[15] = HepG2, 1 h, read-out: HepG2 IC50 Glucose (MMP)
[16] = read-out: ATP (HepG2, galactose) IC50
[17] = read-out: ATP (HepG2, glucose) IC50

In the case of `O=C(Nc1ccc([N+](=O)[O-])cc1Cl)c1cc(Cl)ccc1O` [Niclosamide, reference compound], the “EXT: mean difference in nematode size relative to plate controls” value ([1]; 0.5 µM) is reported as 0.005018, the “EXT: mean difference in nematode size relative to plate controls” value ([1]; 1 µM) is reported as -0.03083 and the “EXT: mean difference in nematode size relative to plate controls” value ([1]; 5 µM) is reported as -0.00657. The “EXT: mean difference in nematode size relative to plate controls” value ([1]; 10 µM) was 0.2753, the “EXT: mean difference in nematode size relative to plate controls” value ([1]; 25 µM) was 0.1226 and the “EXT: mean difference in nematode size relative to plate controls” value ([1]; 50 µM) was 0.2162. The “MMP assays efficacy (%) qHTS-HepG2” value (HepG2 cells [2]) was -98±4%, the IC50 (HepG2 cells [2]) was 0.03 ± 0.01 µM and the “LUM: mean difference in luminescence (ATP content) relative to plate controls” value ([3]; 0.5 µM) was 0.1961. For the same molecule, the “LUM: mean difference in luminescence (ATP content) relative to plate controls” value ([3]; 1 µM) was 0.1905, the “LUM: mean difference in luminescence (ATP content) relative to plate controls” value ([3]; 5 µM) was 0.2783 and the “LUM: mean difference in luminescence (ATP content) relative to plate controls” value ([3]; 10 µM) was 0.1333. For the same molecule, the “LUM: mean difference in luminescence (ATP content) relative to plate controls” value ([3]; 25 µM) was 0.2438, the “LUM: mean difference in luminescence (ATP content) relative to plate controls” value ([3]; 50 µM) was 0.3 and the “LUM: mean difference in luminescence (ATP content) relative to plate controls” value ([3]; 75 µM) was 0.12. The “LUM: mean difference in luminescence (ATP content) relative to plate controls” value ([3]; 100 µM) was 0.1413, the “Potential Mechanism” value [4] was “Uncoupler at low concentrations (0.064-0.16 µM), and Uncoupler + inhibitor at high concentrations (0.8-100 µM)” and the “I-ADP, % of control (O2 consumption rate)” value ([4]; 0.00128 µM) was 85 (30.5) % of control. For the same molecule, the “I-sub, % of control (O2 consumption rate)” value ([4]; 0.00128 µM) was 109 (10.5) % of control, the “II-ADP, % of control (O2 consumption rate)” value (“II-ADP, % of control” below) ([4]; 0.00128 µM) was 92 (49.0) % of control and the “II-sub, % of control (O2 consumption rate)” value (shortened to “II-sub, % of control”) ([4]; 0.00128 µM) was 108 (17.7) % of control. The “I-ADP, % of control (O2 consumption rate)” value ([4]; 0.0064 µM) was 88 (31.4) % of control, the “I-sub, % of control (O2 consumption rate)” value ([4]; 0.0064 µM) was 125 (12.0) % of control and the “II-ADP, % of control” value ([4]; 0.0064 µM) was 87 (46.4) % of control. For the same molecule, the “II-sub, % of control” value ([4]; 0.0064 µM) was 109 (17.9) % of control, the “I-ADP, % of control (O2 consumption rate)” value ([4]; 0.032 µM) was 103 (36.6) % of control and the “I-sub, % of control (O2 consumption rate)” value ([4]; 0.032 µM) was 192 (18.4) % of control. For the same molecule, the “II-ADP, % of control” value ([4]; 0.032 µM) was 89 (47.7) % of control, the “II-sub, % of control” value ([4]; 0.032 µM) was 132 (21.7) % of control and the “I-ADP, % of control (O2 consumption rate)” value ([4]; 0.16 µM) was 126 (45.0) % of control. The “I-sub, % of control (O2 consumption rate)” value ([4]; 0.16 µM) was 419 (40.2) % of control, the “II-ADP, % of control” value ([4]; 0.16 µM) was 92 (49.0) % of control and the “II-sub, % of control” value ([4]; 0.16 µM) was 230 (37.8) % of control. For the same molecule, the “I-ADP, % of control (O2 consumption rate)” value ([4]; 0.8 µM) was 85 (30.2) % of control, the “I-sub, % of control (O2 consumption rate)” value ([4]; 0.8 µM) was 308 (29.6) % of control and the “II-ADP, % of control” value ([4]; 0.8 µM) was 53 (28.1) % of control. For the same molecule, the “II-sub, % of control” value ([4]; 0.8 µM) was 204 (33.5) % of control, the “I-ADP, % of control (O2 consumption rate)” value ([4]; 4 µM) was 70 (25.1) % of control and the “I-sub, % of control (O2 consumption rate)” value ([4]; 4 µM) was 276 (26.5) % of control. For the same molecule, the “II-ADP, % of control” value ([4]; 4 µM) was 39 (21.1) % of control, the “II-sub, % of control” value ([4]; 4 µM) was 147 (24.1) % of control and the “I-ADP, % of control (O2 consumption rate)” value ([4]; 20 µM) was 79 (28.1) % of control. For the same molecule, the “I-sub, % of control (O2 consumption rate)” value ([4]; 20 µM) was 308 (29.6) % of control, the “II-ADP, % of control” value ([4]; 20 µM) was 37 (19.6) % of control and the “II-sub, % of control” value ([4]; 20 µM) was 145 (23.8) % of control. The “I-ADP, % of control (O2 consumption rate)” value ([4]; 100 µM) was 93 (42.6) % of control, the “I-sub, % of control (O2 consumption rate)” value ([4]; 100 µM) was 296 (45.9) % of control and the “II-ADP, % of control” value ([4]; 100 µM) was 44 (31.3) % of control. For the same molecule, the “II-sub, % of control” value ([4]; 100 µM) was 119 (37.3) % of control, the IC50 (rat primary hepatocytes [5]; 1 h, read-out: IC50 in rat primary hepatocytes (MMP, tier-one retest)) was 0.44 µM and the IC50 (rat primary hepatocytes [5]; [13]) was 1.36 µM. For the same molecule, the “ARE (HepG2) EC50” value [6] was “Inactive”, the IC50 (hNSC) was 420 nM and the “ROS (HepG2) EC50” value (HepG2 cells [7]) was “Inactive”. For the same molecule, the Parkin recruitment [8] was “Active”, the “MMP assays efficacy (%) Rat Hepatocytes” value (rat primary hepatocytes [9]) was -112±30% and the “Rat hepatocytes (efficacy) (MMP)” value (rat primary hepatocytes [9]) was 1.36±0.16 ( −107±13.5 ) %. It also gave an EC50 ([10]; Homo sapiens) of 580 ± 490 nM, an IC50 (HepG2 cells [11]; [14]) of 1.47 µM and an IC50 (HepG2 cells [11]; [15]) of 0.87 µM. For the same molecule, the IC50 (HepG2 cells [11]; HepG2, read-out: IC50 in HepG2 cells (MMP, tier-one retest)) was 0.1 µM, the Emax (HepG2 cells [11]) was 87% and the IC50 (HepG2 cells [12]; [16]) was 2260 nM. It also gave an IC50 (HepG2 cells [12]; [17]) of 2010 nM.

In the case of `CO[C@H]1/C=C/O[C@@]2(C)Oc3c(C)c(O)c4c(O)c(c(/C=N/N5CCN(C6CCCC6)CC5)c(O)c4c3C2=O)NC(=O)/C(C)=C\C=C\[C@H](C)[C@H](O)[C@@H](C)[C@@H](O)[C@@H](C)[C@H](OC(C)=O)[C@@H]1C` [Rifapentine, reference compound], the “effect on larval growth (in words)” value ([1]; 0.5–100μM) is listed as “did not affect growth”, the “MMP assays efficacy (%) qHTS-HepG2” value (HepG2 cells [2]) is listed as -104±16% and the IC50 (HepG2 cells [2]) is listed as 1.46 ± 0.26 µM. For the same molecule, the “effect on ATP content (in words)” value ([3]; 0.5–100μM) was “statistically significant decreases in ATP content”, the minimal effective concentration ([3]; Caenorhabditis elegans, read-out: LEC LUM: lowest effect concentration for luminescence, a measure of nematode ATP content) was 100 µM and the “Potential Mechanism” value [4] was “Inactive”. The “I-ADP, % of control (O2 consumption rate)” value ([4]; 4 µM) was 88 (48.1) % of control, the “I-sub, % of control (O2 consumption rate)” value ([4]; 4 µM) was 98 (12.8) % of control and the “II-ADP, % of control” value ([4]; 4 µM) was 94 (82.6) % of control. The “II-sub, % of control” value ([4]; 4 µM) was 92 (22.7) % of control, the “I-ADP, % of control (O2 consumption rate)” value ([4]; 20 µM) was 86 (47.1) % of control and the “I-sub, % of control (O2 consumption rate)” value ([4]; 20 µM) was 127 (16.7) % of control. The “II-ADP, % of control” value ([4]; 20 µM) was 85 (75.2) % of control, the “II-sub, % of control” value ([4]; 20 µM) was 101 (24.8) % of control and the IC50 (rat primary hepatocytes [5]; [13]) was 5.94 µM. The IC50 (rat primary hepatocytes [5]; read-out: MMP assays IC50 (µM) Rat Hepatocytes) was 0.62 ± 0.55 µM, the EC50 ([6]; Homo sapiens, HepG2, read-out: ARE (HepG2) EC50) was 29300 ± 7090 nM and the IC50 (hNSC) was 8070 nM. For the same molecule, the “ROS (HepG2) EC50” value (HepG2 cells [7]) was “Inactive”, the Parkin recruitment [8] was “Inactive” and the “Rat hepatocytes (efficacy) (MMP)” value (rat primary hepatocytes [9]) was 5.94±1.48 ( −73.4±10.2 ) %. For the same molecule, the “p53 (HCT-116) EC50” value [10] was “Inactive”, the IC50 (HepG2 cells [11]; [14]) was 17.7 µM and the IC50 (HepG2 cells [11]; [15]) was 13.9 µM. It also gave an IC50 (HepG2 cells [11]; HepG2, read-out: MMP assays IC50 (µM) HepG2) of 3.88 µM, an Emax (HepG2 cells [11]) of 101% and an IC50 (HepG2 cells [12]; [16]) of 36000 nM. It also gave an IC50 (HepG2 cells [12]; [17]) of 43400 nM.
